According to PMC6895048, “4,5-Disubstituted 1,2,3-triazoles: Effective Inhibition of Indoleamine 2,3-Dioxygenase 1 Enzyme Regulates T cell Activity and Mitigates Tumor Growth” (Scientific Reports, 2019):

Legend:
[1] = target: T1, purified human TDO enzyme (Homo sapiens, UniProt P48775); assay: TDO inhibition assay by the spectrometric method; assay type: biochemical; conditions: spectrophotometric
T1 construct: 6xHis (N); made in house; host or cells: Escherichia coli BL21 (DE3) (pET 28a vector)
Procedure: Both IDO1 and TDO inhibition assays were performed according to the reported procedures[26]–[30],[50],[51]. The solubility of the compounds in water was either moderate or poor. […] In the assay system, the minimum and maximum amount of DMSO was 0.02% and 2%, respectively. The standard reaction mixture (500 μL) containing KPB (100 mM, pH 6.5 for IDO1 enzyme and 50 mM, pH 8.0 for TDO enzyme), sodium ascorbate (20 mM), methylene blue (10 µM), catalase (240 nM, from bovine liver), L-Trp (150 µM), purified enzyme (40 nM for IDO1 and 25 nM for TDO), DMSO (0.05%, v/v), Triton-X 100 (0.01%, v/v) and inhibitors was incubated at 37 °C for 1 hour. The concentration of the inhibitors was varied from 100 µM to 32 nM by serial dilution technique. Then, the reaction was quenched with 100 µL of 30% (w/v) trichloroacetic acid and was incubated for further 15 minutes at 65 °C. After that, 2% (w/v) pDMAB was used to quantify the amount of kynurenine formation. The absorbance of the reaction mixture was recorded by UV-Vis spectrophotometer at 480 nm. The Km = 59.76 µM and Kcat = 6.18 sec^−1.

IDO1 [2] = target: T2, IDO1 (Homo sapiens, UniProt P14902); assay: Kynurenine assay by HPLC analysis, IDO1; assay type: biochemical; parameters: made in house; host or cells: Escherichia coli M15 (pQE30 vector with pREP4 plasmid); conditions: for IC50: HPLC based IDO1 inhibition assay
Procedure: (§1) HPLC based IDO1, and TDO inhibition assays were performed according to the earlier reported procedure[19],[27]–[30]. The reaction mixture (250 µL) contained KPB (100 mM, pH 6.5 for IDO1 and 50 mM, pH 8.0 for TDO), sodium ascorbate (20 mM), methylene blue (10 µM), catalase (240 nM, from bovine liver, Sigma), L-Trp (150 µM), purified enzyme (40 nM for IDO1 and 25 nM for TDO), DMSO (0.05%, v/v), Triton-X 100 (0.01%, v/v) and inhibitors. The concentration of the compound was varied from 100 µM to 32 nM by serial dilution. The mixture was incubated at 37 °C for 1 hour in the absence and presence of the synthesized compounds. The reaction was then quenched using 50 µL of 30% (w/v) trichloroacetic acid and incubated at 65 °C for additional 15 minutes to allow complete hydrolysis of N-formylkynurenine to kynurenine. After that, the mixture was centrifuged at 10,000 rpm for 10 minutes, and 100 µL of clear solution was transferred to another tube for HPLC analysis. Then, 20 µL of the reaction mixture was then injected through Ascentis® express C18, 2.7 µm HPLC column with a flow rate of 0.5 mL/minute of the mobile phase containing 50% sodium citrate buffer (40 mM, pH 2.25) and 50% methanol (v/v) with 400 µM SDS. The area under the curve at 365 nm chromatogram corresponding to the kynurenine formation was recorded, and % of inhibition was calculated using standard curve prepared with pure kynurenine (from Sigma) under similar experimental conditions.

[3] = target: T3, purified human IDO1 enzyme (Homo sapiens, UniProt P14902); assay: IDO1 inhibition assay by the spectrometric method (pDMAB); assay type: biochemical; conditions: for IC50: purified human IDO1, spectrophotometric, mean of three independent assays, read-out: hIDO1 IC50
T3 construct: made in house; host or cells: Escherichia coli M15 (pQE30 vector with pREP4 plasmid)
Procedure: Both IDO1 and TDO inhibition assays were performed according to the reported procedures[26]–[30],[50],[51]. […] In the assay system, the minimum and maximum amount of DMSO was 0.02% and 2%, respectively. […] The concentration of the inhibitors was varied from 100 µM to 32 nM by serial dilution technique. Then, the reaction was quenched with 100 µL of 30% (w/v) trichloroacetic acid and was incubated for further 15 minutes at 65 °C. After that, 2% (w/v) pDMAB was used to quantify the amount of kynurenine formation. The absorbance of the reaction mixture was recorded by UV-Vis spectrophotometer at 480 nm.

IDO1 [4] = target: T2, IDO1; assay: Cellular IDO1 activity assay in IFN-γ induced MDA-MB-231 cells; assay type: cell-based; parameters: induce the expression of the native IDO1 enzyme from its mRNA in the MDA-MB-231 cells; endogenous in cells; host or cells: MDA-MB-231 cells induced with human IFN-γ (50 ng/mL); conditions: IDO1 expression induced by human IFN-γ (50 ng/mL); mean of three
Procedure: The cellular enzyme activity assay was performed according to the reported procedure with minor modifications[19],[27]–[30],[33],[54]. Briefly, MDA-MB-231 breast cancer cells were selected for this assay because of the presence of IDO1 mRNA in this cell line. First, cells were grown in DMEM/F12 complete media overnight. Then different concentration of human interferon-gamma (IFN-γ) (from 5–1000 ng/mL) was added to it and incubated for 48 hours. This treatment is reported to allow over-expression of IDO1 enzyme in MDA-MB-231 cells. […] Sterile cell-culture grade PBS was used to wash the cells by centrifugation technique. Then, the pellet was lysed in 10 mM HEPES buffer by passing through a sterile syringe. The lysate was used for standard IDO1 assay as mentioned earlier. The relative amount of N-formylkynurenine generated in the presence of the different concentration of IFN-γ was used to optimize the required concentration of IFN-γ for the IDO1 inhibition assay. […] Cells stimulated with IFN-γ alone were used as negative control, while cells stimulated with L-Trp without compound served as positive control. The cells were washed with sterile cell culture grade PBS and lysed in 10 mM HEPES buffer by sterile syringe. The lysate was used for standard IDO1 assay, as mentioned earlier, and the extent of IDO1 enzyme inhibition was determined for the selected compounds.

TDO enzyme = target: T4, TDO enzyme (Homo sapiens, UniProt P48775); assay: HPLC based TDO inhibition assay; assay type: biochemical
T4 construct: 6xHis (N); made in house; host or cells: Escherichia coli BL21 (DE3) (pET 28a vector)
Procedure: as §1

IDO1 [5] = conditions: cited from earlier work
[6] = cited from earlier work
IDO1 [7] = conditions: cited from earlier work; remark: listed apart in the source

T1 sequence (P48775 whole entry): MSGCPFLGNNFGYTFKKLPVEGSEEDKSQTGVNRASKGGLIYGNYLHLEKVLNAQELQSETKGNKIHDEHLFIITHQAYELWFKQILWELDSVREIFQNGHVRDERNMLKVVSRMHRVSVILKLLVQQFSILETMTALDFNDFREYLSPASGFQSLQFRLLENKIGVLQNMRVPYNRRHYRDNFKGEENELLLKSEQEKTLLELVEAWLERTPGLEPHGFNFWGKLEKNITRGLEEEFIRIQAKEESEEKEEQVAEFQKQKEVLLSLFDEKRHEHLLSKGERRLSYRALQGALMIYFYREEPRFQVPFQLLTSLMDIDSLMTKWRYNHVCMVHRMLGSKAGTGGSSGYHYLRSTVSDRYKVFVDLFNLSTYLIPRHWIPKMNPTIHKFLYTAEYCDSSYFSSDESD
T4 sequence (P48775 whole entry): as above
T3 sequence (P14902 whole entry): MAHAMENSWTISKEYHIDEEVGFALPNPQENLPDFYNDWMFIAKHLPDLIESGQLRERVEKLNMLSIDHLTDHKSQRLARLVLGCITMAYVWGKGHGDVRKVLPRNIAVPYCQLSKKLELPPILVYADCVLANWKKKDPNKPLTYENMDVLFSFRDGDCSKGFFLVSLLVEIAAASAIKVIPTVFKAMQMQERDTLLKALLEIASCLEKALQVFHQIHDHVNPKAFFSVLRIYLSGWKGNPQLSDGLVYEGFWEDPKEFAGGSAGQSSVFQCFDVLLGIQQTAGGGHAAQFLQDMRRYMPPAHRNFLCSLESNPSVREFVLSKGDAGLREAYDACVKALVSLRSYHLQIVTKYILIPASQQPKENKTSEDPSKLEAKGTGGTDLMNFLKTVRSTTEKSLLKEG
T2 sequence (P14902 whole entry): as above

NC(=O)c1n[nH]nc1-c1ccc(Cl)c(Cl)c1 [Compound 3j]
% of Enzyme inhibition (TDO) ([1]; 32 nM): 6%
% of Enzyme inhibition (TDO) ([1]; 160 nM): 9%
% of Enzyme inhibition (TDO) ([1]; 800 nM): 20%
% of Enzyme inhibition (TDO) ([1]; 4 µM): 27%
% of Enzyme inhibition (TDO) ([1]; 20 µM): 32%
% of Enzyme inhibition (TDO) ([1]; 100 µM): 60%
IC50 (IDO1 [2]): 0.099 ± 0.024 µM
% Of inhibition for IDO1 enzyme (IDO1 [2]; HPLC, 32 nM): 39%
% Of inhibition for IDO1 enzyme (IDO1 [2]; HPLC, 160 nM): 60%
% Of inhibition for IDO1 enzyme (IDO1 [2]; HPLC, 800 nM): 70%
% Of inhibition for IDO1 enzyme (IDO1 [2]; HPLC, 4 µM): 88%
% Of inhibition for IDO1 enzyme (IDO1 [2]; HPLC, 20 µM): 89%
% Of inhibition for IDO1 enzyme (IDO1 [2]; HPLC, 100 µM): 89%
IC50 [3]: 0.069 ± 0.004 µM
EC50 (IDO1 [4]): 0.053 ± 0.004 µM
% Of inhibition for TDO enzyme (TDO enzyme; 32 nM): 33%
% Of inhibition for TDO enzyme (TDO enzyme; 160 nM): 39%
% Of inhibition for TDO enzyme (TDO enzyme; 800 nM): 42%
% Of inhibition for TDO enzyme (TDO enzyme; 4 µM): 47%
% Of inhibition for TDO enzyme (TDO enzyme; 20 µM): 51%
% Of inhibition for TDO enzyme (TDO enzyme; 100 µM): 51%

Oc1ccc(Cl)cc1-c1cnn[nH]1 [MMG-0358, 4-chloro-2-(1H-1,2,3-triazol-5-yl)phenol]
IDO1 inhibitory activities, enzymatic assay (IDO1 [5]): nanomolar-level
cytotoxicity [6]: low cytotoxicity
IDO1 inhibitory activities, cellular assay (IDO1 [7]): nanomolar-level

CCOC(=O)c1n[nH]nc1-c1ccccc1 [Compound 2a, ethyl 5-phenyl-2H-1,2,3-triazole-4-carboxylate]
inhibition at 0.032 µM ([1]; 32 nM): 8%
inhibition at 0.16 µM ([1]; 160 nM): 17%
inhibition at 0.8 µM ([1]; 800 nM): 19%
inhibition at 4 µM ([1]; 4 µM): 23%
inhibition at 20 µM ([1]; 20 µM): 27%
inhibition at 100 µM ([1]; 100 µM): 34%
IC50 (IDO1 [2]): 2.79 ± 0.066 µM
inhibition at 0.032 µM (IDO1 [2]; HPLC, 32 nM): 26%
inhibition at 0.16 µM (IDO1 [2]; HPLC, 160 nM): 31%
inhibition at 0.8 µM (IDO1 [2]; HPLC, 800 nM): 35%
inhibition at 4 µM (IDO1 [2]; HPLC, 4 µM): 61%
inhibition at 20 µM (IDO1 [2]; HPLC, 20 µM): 76%
inhibition at 100 µM (IDO1 [2]; HPLC, 100 µM): 81%
fold stronger IDO1 inhibitory activity than 1a ([3]; in comparison with lead compound 1a): 6 fold
IC50 [3]: 14.4 ± 3.36 µM
EC50 (IDO1 [4]): 3.26 ± 0.045 µM
inhibition at 0.032 µM (TDO enzyme; 32 nM): 9%
inhibition at 0.16 µM (TDO enzyme; 160 nM): 39%
inhibition at 0.8 µM (TDO enzyme; 800 nM): 49%
inhibition at 4 µM (TDO enzyme; 4 µM): 68%
inhibition at 20 µM (TDO enzyme; 20 µM): 68%
inhibition at 100 µM (TDO enzyme; 100 µM): 73%
